According to patent US20250064762A1, “A SUBSTITUTED AROMATIC DICARBONIC ACID AMIDE AS AN INHIBITOR OF THE FERROPTOSIS SUPPRESSOR PROTEIN-1 (FSP1)” (JULIUS-MAXIMILIANS-UNIVERSITÄT WÜRZBURG, priority 2021, published 2025):
Entries after “also recorded” stand apart in the source; their conditions may differ.

Columns and labels:
[1] = target: T1, murine FSP1 (Mus musculus, UniProt Q8BUE4); test: In vitro FSP1 oxidoreductase (NADH consumption) assay, murine FSP1; format: biochemical; details: resazurine or coQ1 as electron acceptor
T1 construct: His6 (N, cleaved yes); made in house; host or cells: Escherichia coli BL21 pG-Tf2
T1 sequence (Q8BUE4 1-373): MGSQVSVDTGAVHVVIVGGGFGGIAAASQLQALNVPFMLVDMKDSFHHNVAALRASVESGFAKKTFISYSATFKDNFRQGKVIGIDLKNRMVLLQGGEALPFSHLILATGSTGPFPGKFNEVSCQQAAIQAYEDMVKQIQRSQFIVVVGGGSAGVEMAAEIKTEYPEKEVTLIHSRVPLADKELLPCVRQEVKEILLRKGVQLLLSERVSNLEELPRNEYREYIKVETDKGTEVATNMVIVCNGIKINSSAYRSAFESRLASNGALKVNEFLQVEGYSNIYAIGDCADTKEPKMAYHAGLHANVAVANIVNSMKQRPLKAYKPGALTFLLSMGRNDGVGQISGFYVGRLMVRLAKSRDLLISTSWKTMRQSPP
Protocol: FSP1 activity assays were performed using recombinant, purified murine or human FSP1, NADH, and resazurine or coenzyme-Q1 (coQ1) as electron acceptor molecules. The following conditions were used: 200 μM resazurine were reduced with 750 nM mFSP1 or 150 nM hFSP1; 100 μM coQ1 was reduced with 400 nM mFSP1; and 137 μM coQ1 were reduced with 200 nM hFSP1. The consumption of NADH (500 μM) was measured at 340 nm in phosphate-buffered saline (80 mM Na3PO4, 300 mM NaCl; pH 7.0) at room temperature on a CLARIOstar microplate reader (BMG Labtech). Initial rates were determined, and data were fitted by linear regression using GraphPad Prism software, version 9.1.2.
In order to determine inhibition of FSP1 by CPBA, FSP1 activity was measured […] either CPBA or iFSP1 as a positive control. In vitro FSP1 oxidoreductase activity assays were performed using recombinant, purified murine or human FSP1, NADH, and resazurine or coenzyme-Q1 (coQ1) as electron acceptor molecules as described above (see FIG. 19).
In vitro FSP1 activity assays with human (see FIG. 22 C) or murine (see FIG. 22 D) FSP1 were performed as described above. Shown are NADH consumption assays using recombinant, purified human or mouse FSP1 (hFSP1, mFSP1) and resazurine or coenzyme-Q1 (CoQ1) as electron acceptor molecules.

[2] = system: cancer cell lines; test: FIN56 toxicity in a panel of cancer cell lines; format: cell-based, human, mouse, rat
Source text: Cell culture media and supplements were from Thermo Fisher Scientific, unless specified otherwise. Mouse embryonic fibroblasts (MEFs) were generated from Pgp-wildtype (Pgp^fl/fl) or heterozygous Pgp-inactivated mouse embryos (Pgp^fl/D34N) as described (Segerer et al., 2016). Human embryonic kidney HEK-AD293 (HEK293) cells (Stratagene), HT-1080 human fibrosarcoma cells, PC3 and Du145 human prostate carcinoma cells, HepG2 human hepatocytic carcinoma (HCC) cells, Hepa 1-6 murine HCC, 4T1 mouse breast carcinoma, Colon-26 mouse colon carcinoma, C6 rat glioblastoma and RAW264.7 mouse monocytes/macrophages (all from LGC Standards) were cultured in Dulbecco's modified Eagle's medium (DMEM, 4.5 g/L glucose) supplemented with 10% (v/v) heat-inactivated fetal calf serum (FCS), 2 mM L-glutamine, 100 U/mL penicillin and 100 μg/mL streptomycin (Pen/Strep). Hepa-1c1c7 murine HCC were grown in alpha MEM without nucleosides (Gibco, cat. no. 31095029) supplemented with 10% FCS and Pen/Strep. JTC-27 rat HCC were cultured in RPMI-1640 with 10% FCS and Pen/Strep. […]
Cells were seeded onto 96-well plates (5,000 cells per well), and treated with serial dilutions of ferroptosis-inducing compounds (erastin, BSO, RSL3, FIN56) or cytotoxic drugs (staurosporine, nocodazole, tunicamycin, paclitaxel, etoposide, menadione, rotenone, FCCP, carboplatin) in the absence or presence of CPBA or iFSP1 (100 μM or 10 μM, respectively; unless stated otherwise) or the DMSO solvent control. Ferroptotic cell death was evaluated by incubating in the absence or presence of liproxstatin-1 (100 nM), ferrostatin-1 (200 nM), or deferoxamine (100 μM). Cell viability was assessed after 16 h using AquaBluer as an indicator of viable cells according to the manufacturer's recommendations (MultiTarget Pharmaceuticals, LLC). Fluorescence (excitation, 540 nm; emission, 590 nm) was analyzed on a Clariostar microplater reader. […]

Row | SMILES | inhibition of murine FSP1 activity [1] | sensitization of cancer cell lines to FIN56-induced ferroptosis ([2]; CPBA 100 μM, iFSP1 10 μM (3 μM in HepG2), 16 h) | effect in human cancer cell lines ([2]; human cancer cell lines) | effect in mouse or rat cancer cell lines ([2]; mouse or rat cancer cell lines (FIG. 20A))
1 | O=C(Nc1ccccc1C(=O)O)c1ccc(Oc2ccc(C(=O)Nc3ccccc3C(=O)O)cc2)cc1 [CPBA, 2-[[4-[4-[(2-carboxyphenyl)carbamoyl]phenoxy]benzoyl]amino]-benzoic acid] | inhibits human and murine FSP1 activity; also recorded: much more effective inhibition of murine FSP1 by CPBA compared to iFSP1 | sensitizes cancer cell lines of different species and tumor types to ferroptosis | – | –
2 | Cc1ccc(-c2c(C#N)c(N)n3c(nc4ccccc43)c2C#N)cc1 [iFSP1, reference compound] | has no effect on mFSP1; also recorded: much less active against murine FSP1 | – | able to inhibit endogenous and overexpressed FSP1 in human cancer cell lines, and thereby sensitize these cells to ferroptotic death | completely ineffective in mouse or rat cancer cell lines
